The record followed here is patent US7538182B2, “Polypeptide and protein derivatives and process for their preparation” (Amylin Pharmaceuticals, Inc., priority 1986, dated 2009).

Data set [1] in a line: Removal of iron with propionic acid/EDTA, followed by spectroscopy (loss of the 400-450 nm peak). Conditions: test solution of 1 mM ferrioxamine B. The class given is physicochemical. From the text: The pink colour of the solution was rapidly lost. If desired the reaction can be followed spectroscopically, since after removal of iron the peak between 400 nm and 450 nm, characteristic of the ferrioxamine B conjugate will disappear completely.

Data set [2] is classed as physicochemical. From the text:
Once the iron had been removed, the solution was adjusted to pH 5.5 with 1.7 M sodium acetate buffer. The resulting precipitate was carefully washed by centrifugation in 0.7 M sodium acetate buffer, until the residual EDTA concentration could be expected to be negligible compared to that of the conjugate.

As for `CC(=O)N([O-])CCCCCNC(=O)CCC(=O)N([O-])CCCCCNC(=O)CCC(=O)N([O-])CCCCCN.[Fe+3]` [ferrioxamine B], the “rate of the removal of iron” value in data set [1] (pH 2.5) is recorded as “too rapid to follow”. The “half-time for the removal of iron” value is listed as “approximately 90 seconds” in data set [1] (pH 3) and “approximately 340 sec” in data set [1] (pH 3.5).

For “des-Ala^B30-insulin/desferrioxamine B conjugate [iron-free protein derivative]”, in data set [2], the “storage stability (capacity to be labelled)” value is “without apparent impairment”.
